Key:
[1] = molecular target: T1, KRAS G12D (Homo sapiens, UniProt P01116, G12D); assay: KRAS_G12D GDP-GTP exchange assay (bodipy-GDP/GppNHp, SOS1); format: biochemical; details: bodipy-loaded KRAS G12D 2.5 nM, 4 hours pre-incubation, 2 hours exchange; for IC50: read-out: G12D_exchange (KRAS_G12D exchange assay IC50)
Experimental: (§1) The inhibitor potency of the exemplified compounds was determined in a fluorescence based guanine nucleotide exchange assay, which measures the exchange of bodipy-GDP (fluorescently labeled GDP) for GppNHp (Non-hydrolyzable GTP analog) to generate the active state of KRAS in the presence of SOS1 (guanine nucleotide exchange factor). Inhibitors were serially diluted in DMSO and a volume of 0.1 μL was transferred to the wells of a black low volume 384-well plate. 5 μL/well volume of bodipy-loaded KRAS G12D diluted to 2.5 nM in assay buffer (25 mM Hepes pH 7.5, 50 mM NaCl, 10 mM MgCl2 and 0.01% Brij-35) was added to the plate and pre-incubated with inhibitor for 4 hours at ambient temperature. Appropriate controls (enzyme with no inhibitor or with a G12D inhibitor) were included on the plate. The exchange was initiated by the addition of a 5 μL/well volume containing 1 mM GppNHp and 300 nM SOS1 in assay buffer. The 10 μL/well reaction concentration of the bodipy-loaded KRAS G12D, GppNHp, and SOS1 were 2.5 nM, 500 uM, and 150 nM, respectively. The reaction plates were incubated at ambient temperature for 2 hours, a time estimated for complete GDP-GTP exchange in the absence of inhibitor. For the KRAS G12V mutant, similar guanine nucleotide exchange assays were used with 2.5 nM as final concentration for the bodipy loaded KRAS proteins and 3 hours incubation after adding GppNHp-SOS1 mixture. A cyclic peptide described to selectively bind G12D mutant (Sakamoto et al., BBRC 484.3 (2017), 605-611) or internal compounds with confirmed binding were used as positive controls in the assay plates. Fluorescence intensities were measured on a PheraStar plate reader instrument (BMG Labtech) with excitation at 485 nm and emission at 520 nm.
(§2) Either GraphPad prism or XLfit was used to analyze the data. The IC50 values were derived by fitting the data to a four parameter logistic equation producing a sigmoidal dose-response curve with a variable Hill coefficient. Prism equation: Y=Bottom+(Top−Bottom)/(1+10^((Log IC50−X)*Hill slope)); XLfit equation: Y=(A+((B−A)/(1+((X/C)^D)))) where X is the logarithm of inhibitor concentration and Y is the response.

[2] = molecular target: KRAS G12V (Homo sapiens, UniProt P01116, G12V); assay: KRAS_G12V GDP-GTP exchange assay (bodipy-GDP/GppNHp, SOS1); format: biochemical; details: bodipy loaded KRAS G12V 2.5 nM, 3 hours incubation after GppNHp-SOS1; read-out: G12V_exchange (KRAS_G12V exchange assay IC50)
Experimental: as §1, §2

[3] = molecular target: T1, KRAS G12D; assay: KRAS_G12D cellular pERK HTRF assay; format: cell-based; set-up: CRL-1997; host or cells: A427 or HPAF-II; details: KRAS G12D cells (A427, HPAF-II), 2 hours; read-out: G12D_pERK (KRAS_G12D pERK assay IC50)
Experimental: MIA PaCa-2 (KRAS G12C; ATCC® CRL-1420), A427 (KRAS G12D; ATCC® HTB53), HPAF-II (KRAS G12D; ATCC® CRL-1997) and NCI-H838 (KRAS WT; ATCC® CRL-5844) cells are purchased from ATCC and maintained in RPMI 1640 media supplemented with 10% FBS (Gibco/Life Technologies). The cells are plated at 5000 cells per well (8 uL) into Greiner 384-well low volume, flat-bottom, tissue culture treated white plates and incubated overnight at 37° C., 5% CO2. The next morning, test compound stock solutions are diluted in media at 3x the final concentration, and 4 uL are added to the cells. The plate is mixed by gentle rotation for 30 seconds (250 rpm) at room temperature. The cells are incubated with the KRAS G12C and G12D compounds for 4 hours or 2 hours respectively at 37° C., 5% CO2.
4 uL of 4x lysis buffer with blocking reagent (1:25) (Cisbio) are added to each well and plates are rotated gently (300 rpm) for 30 minutes at room temperature. 4 uL per well of Cisbio anti Phospho-ERK 1/2 d2 is mixed with anti Phospho-ERK 1/2 Cryptate (1:1) are added to each well, mixed by rotation and incubated overnight in the dark at room temperature. Plates are read on the Pherastar plate reader at 665 nm and 620 nm wavelengths. IC50 determination is performed by fitting the curve of inhibitor percent inhibition versus the log of the inhibitor concentration using the GraphPad Prism 7 software.

T1 sequence (P01116 1-188 isoform P01116-2 G12D): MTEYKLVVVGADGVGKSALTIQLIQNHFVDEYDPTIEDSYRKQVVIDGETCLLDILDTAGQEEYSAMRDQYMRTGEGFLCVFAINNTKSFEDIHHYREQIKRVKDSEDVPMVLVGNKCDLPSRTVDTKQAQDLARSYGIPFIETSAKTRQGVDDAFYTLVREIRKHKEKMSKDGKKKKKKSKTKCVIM
Sequence of KRAS G12V (P01116 1-188 isoform P01116-2 G12V): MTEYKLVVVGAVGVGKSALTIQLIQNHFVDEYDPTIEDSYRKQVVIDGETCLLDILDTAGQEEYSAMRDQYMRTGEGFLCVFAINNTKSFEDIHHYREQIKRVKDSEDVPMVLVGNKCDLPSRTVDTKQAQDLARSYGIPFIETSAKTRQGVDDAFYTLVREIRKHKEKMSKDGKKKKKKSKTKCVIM

G12D_exchange (KRAS_G12D exchange assay IC50) [1]	IC50 [2]	IC50 [1]	IC50 [3]	SMILES
†	0.1 to 1 µM	–	–	COC(=O)N1CCC[C@@H]1c1cc2c(N3CC(C)(N(C)C)C3)nc3c(F)c(-c4cccc(Cl)c4Cl)ncc3c2n1[C@H]1[C@H]2CN[C@@H]1C2 [Example 22, Methyl (R)-2-(1-((1R,4R,5S)-2-azabicyclo[2.1.1]hexan-5-yl)-7-(2,3-dichlorophenyl)-4-(3-(dimethylamino)-3-methylazetidin-1-yl)-6-fluoro-1H-pyrrolo[3,2-c][1,6]naphthyridin-2-yl)pyrrolidine-1-carboxylate]
–	–	1 to 5 µM	–	Cc1nc2c(nc(N3CC(N(C)C)C3)c3nc(CCC(=O)N(C)C)n([C@@H]4[C@@H]5CN[C@H]4C5)c32)c(C)c1-c1cc(O)cc2ccccc12 (relative stereo) [Example 16, 3-(1-((endo)-2-azabicyclo[2.1.1]hexan-5-yl)-4-(3-(dimethylamino)azetidin-1-yl)-7-(3-hydroxynaphthalen-1-yl)-6,8-dimethyl-1H-imidazo[4,5-c][1,5]naphthyridin-2-yl)-N,N-dimethylpropanamide]
†	≤ 0.1 µM	–	1 to 5 µM	C[C@H](Oc1nc2c(F)c(-c3cc(O)cc4ccccc34)ncc2c2c1nc(CCC(=O)N(C)C)n2C1C2CNC1C2)[C@@H]1CCCN1C (single isomer, unassigned) [Example 9a]
†	≤ 0.1 µM	–	–	COC(=O)N1CCC[C@@H]1c1cc2c(O[C@@H](C)[C@@H]3CCCN3C)nc3c(F)c(-c4cccc(Cl)c4Cl)ncc3c2n1[C@H]1[C@H]2CN[C@@H]1C2 [Example 23, Methyl (R)-2-(1-((1R,4R,5S)-2-azabicyclo[2.1.1]hexan-5-yl)-7-(2,3-dichlorophenyl)-6-fluoro-4-((S)-1-((S)-1-methylpyrrolidin-2-yl)ethoxy)-1H-pyrrolo[3,2-c][1,6]naphthyridin-2-yl)pyrrolidine-1-carboxylate]
–	–	0.1 to 1 µM	–	C[C@H](Oc1nc2c(F)c(-c3c[nH]c4ccc(F)cc34)ncc2c2c1cc(CN1CCOC1=O)n2C1C2CNC1C2)[C@@H]1CCCN1C (single isomer, unassigned) [Example 6a]
†	5 to 10 µM	–	–	CNC(=O)c1cccc(-c2nc3c(F)c(-c4cccc(C)c4Cl)ncc3c3c2cc([C@H]2CCCN2C(=O)OC)n3[C@H]2[C@H]3CN[C@@H]2C3)n1 [Example 24, Methyl (R)-2-(1-((1R,4R,5S)-2-azabicyclo[2.1.1]hexan-5-yl)-7-(2-chloro-3-methylphenyl)-6-fluoro-4-(6-(methylcarbamoyl)pyridin-2-yl)-1H-pyrrolo[3,2-c][1,6]naphthyridin-2-yl)pyrrolidine-1-carboxylate]
†	0.1 to 1 µM	–	1 to 5 µM	C[C@H](Oc1nc2c(F)c(N3CCCc4ccccc43)ncc2c2c1cc(CN1CCOC1=O)n2C1C2CNC1C2)[C@@H]1CCCN1C (single isomer, unassigned) [Example 7a]
†	0.1 to 1 µM	–	–	Cc1cc2c(O[C@@H](C)[C@@H]3CCCN3C)nc3c(F)c(N4CCc5ccccc54)ncc3c2n1C1C2CNC1C2 (single isomer, unassigned) [Example 8a]
†	≤ 0.1 µM	–	–	Cc1cc2c(O[C@@H](C)[C@@H]3CCCN3C)nc3c(F)c(-c4cc(O)cc5ccc(F)cc45)ncc3c2n1[C@H]1[C@H]2CN[C@@H]1C2 [Example 18, 4-(1-((1R,4R,5S)-2-Azabicyclo[2.1.1]hexan-5-yl)-6-fluoro-2-methyl-4-((S)-1-((S)-1-methylpyrrolidin-2-yl)ethoxy)-1H-pyrrolo[3,2-c][1,6]naphthyridin-7-yl)-6-fluoronaphthalen-2-ol]
–	–	1 to 5 µM	–	CN(C)C(=O)CCc1nc2c(N3CC(N(C)C)C3)nc3c(F)c(-c4cccc5c4C(C#N)CC5)ncc3c2n1C1C2CNC1C2 (single isomer, unassigned) [Example 10b, 3-(1-((endo)-2-azabicyclo[2.1.1]hexan-5-yl)-7-(3-cyano-2,3-dihydro-1H-inden-4-yl)-4-(3-(dimethylamino)azetidin-1-yl)-6-fluoro-1H-imidazo[4,5-c][1,6]naphthyridin-2-yl)-N,N-dimethylpropanamide]
†	1 to 5 µM	–	–	CN(C)C(=O)CCc1nc2c(N3CC(N(C)C)C3)nc3cc(-c4cc(O)cc5ccccc45)c(CCC#N)nc3c2n1C1C2CNC1C2 (single isomer, unassigned) [Example 17a, 3-(1-((endo)-2-azabicyclo[2.1.1]hexan-5-yl)-8-(2-cyanoethyl)-4-(3-(dimethylamino)azetidin-1-yl)-7-(3-hydroxynaphthalen-1-yl)-1H-imidazo[4,5-c][1,5]naphthyridin-2-yl)-N,N-dimethylpropanamide]
†	≤ 0.1 µM	–	–	C[C@H](Oc1nc2c(F)c(-c3cccc4c3OCCC4)ncc2c2c1cc(C1CCc3cccc(=O)n31)n2[C@H]1[C@H]2CN[C@@H]1C2)[C@@H]1CCCN1C (single isomer, unassigned) [Example 20a]
†	≤ 0.1 µM	–	–	C[C@H](Oc1nc2c(F)c(-c3cc(O)cc4ccccc34)ncc2c2c1nc(CCC(=O)N(C)C)n2C1C2CNC1C2)[C@@H]1CCCN1C (single isomer, unassigned) [Example 9b]
†	≤ 0.1 µM	–	–	C[C@H](Oc1nc2c(F)c(-c3cccc4c3OCCC4)ncc2c2c1cc([C@@H](C)n1ccccc1=O)n2[C@H]1[C@H]2CN[C@@H]1C2)[C@@H]1CCCN1C [Example 21, 1-((R)-1-(1-((1R,4R,5S)-2-Azabicyclo[2.1.1]hexan-5-yl)-7-(chroman-8-yl)-6-fluoro-4-((S)-1-((S)-1-methylpyrrolidin-2-yl)ethoxy)-1H-pyrrolo[3,2-c][1,6]naphthyridin-2-yl)ethyl)pyridin-2(1H)-one]
–	1 to 5 µM	0.1 to 1 µM	–	Cc1nc2c(F)c(-c3cc(O)cc4ccccc34)ncc2c2c1cc(CN1CCOC1=O)n2[C@@H]1[C@@H]2CN[C@H]1C2 (relative stereo) [Example 5, 3-((1-((endo)-2-azabicyclo[2.1.1]hexan-5-yl)-6-fluoro-7-(3-hydroxynaphthalen-1-yl)-4-methyl-1H-pyrrolo[3,2-c][1,6]naphthyridin-2-yl)methyl)oxazolidin-2-one]
–	1 to 5 µM	0.1 to 1 µM	–	Cc1cc2c(O[C@@H](C)[C@@H]3CCCN3C)nc3c(F)c(N4CCc5ccccc54)ncc3c2n1C1C2CNC1C2 (single isomer, unassigned) [Example 8b]
†	≤ 0.1 µM	–	–	CC(=O)N1CCC[C@@H]1c1cc2c(O[C@@H](C)[C@@H]3CCCN3C)nc3c(F)c(-c4cccc5scnc45)ncc3c2n1[C@H]1[C@H]2CN[C@@H]1C2 [Example 19, 1-((R)-2-(7-(Benzo[d]thiazol-4-yl)-1-((1R,4R,5S)-2-azabicyclo[2.1.1]hexan-5-yl)-6-fluoro-4-((S)-1-((S)-1-methylpyrrolidin-2-yl)ethoxy)-1H-pyrrolo[3,2-c][1,6]naphthyridin-2-yl)pyrrolidin-1-yl)ethan-1-one]
